Four compounds from patent publication US10550099B2 (FORMA Therapeutics, Inc., priority 2014, dated 2020) can be followed below.

Experiment [1] deals with HCT116 isogenic IDH1-R132C mutant cells. Kind of experiment: Cellular 2-HG assay using HCT116 mutant IDH1 cells (IDH1-R132C), RapidFire mass spectrometry. The experiment is classed as cell-based. The procedure: (§1) Example 106—Cellular 2-HG Assay Using HCT116 Mutant IDH1 Cells
(§2) HCT116 isogenic IDH1-R132H and IDH1-R132C mutant cells were cultured in growth media (McCoy's 5A, 10% fetal bovine serum, 1× antibiotic-antimycotic solution and 0.3 mg/mL G418) in 5% CO2 in an incubator at 37° C. To prepare the assay, cells were trypsinized and resuspended in assay media (McCoy's 5A with no L-glutamine, 10% fetal bovine serum, 1× antibiotic-antimycotic solution and 0.3 mg/mL G418). An aliquot of 10,000 cells/100 μL was transferred to each well of a clear 96-well tissue culture plate. The cells were incubated in 5% CO2 at 37° C. in an incubator overnight to allow for proper cell attachment. An aliquot of 50 μL of compound containing assay media were then added to each well and the assay plate was kept in 5% CO2 at 37° C. in an incubator for 24 hours. The media was then removed from each well and 150 μL of a methanol/water mixture (80/20 v/v) was added to each well. The plates were kept at −80° C. freezer overnight to allow for complete cell lysis. An aliquot of 125 μL of extracted supernatant was analyzed by RapidFire high-throughout-mass spectrometry (Agilent) to determine the cellular 2-HG level. The IC50 of a given compound was calculated by fitting the dose response curve of cellular 2-HG inhibition at a given concentration with the four parameter logistic equation.

The target in experiment [2] is IDH1-R132C recombinant protein (Homo sapiens (Human), UniProt O75874, R132C). The experiment is described as follows: IDH1-R132C enzymatic assay (diaphorase/resazurin readout of NADPH consumption). It counts as biochemical. Particulars: IDH1-R132C enzyme; read-out: Enzyme IDH1 R132C IC50 (Range). The procedure: (§3) Assays were performed in a 384-well black plate. An aliquot of 250 nL of compound was incubated with 10 μL of 30 nM IDH1-R132H or 10 nM IDH1-R132C recombinant protein in assay buffer (50 mM Tris pH=7.5, 150 mM NaCl, 5 mM MgCl2, 0.1% (w/v) Bovine Serum Albumin, and 0.01% Triton X-100) in each well at 25° C. for 15 minutes. After the plate was centrifuged briefly, an aliquot of 10 μL of 2 mM α-ketoglutarate and 20 μM NADPH solution prepared in assay buffer was then added to each well and the reaction was maintained at 25° C. for 45 minutes. An aliquot of 10 μL of diaphorase solution (0.15 U/mL diaphorase and 30 μM Resazurin in assay buffer) was added to each well. The plate was maintained at 25° C. for 15 minutes and then read on a plate reader with excitation and emission wavelengths at 535 nm and 590 nm, respectively. The IC50 of a given compound was calculated by fitting the dose response curve of inhibition of NADPH consumption at a given concentration with the four parameter logistic equation.
(In general: Alamar Blue is a resazurin reagent that responds to reducing activity.)

Experiment [3] deals with HCT116 isogenic IDH1-R132H mutant cells. The experiment is described as follows: Cellular 2-HG assay using HCT116 mutant IDH1 cells (IDH1-R132H), RapidFire mass spectrometry. It counts as cell-based. How it is done: as §1, §2
Experiment [4] has as its target IDH1-R132H recombinant protein (Homo sapiens (Human), UniProt O75874, R132H). The experiment is described as follows: IDH1-R132H enzymatic assay (diaphorase/resazurin readout of NADPH consumption). It counts as biochemical. Particulars: IDH1-R132H enzyme; read-out: Enzyme IDH1 R132H IC50 (Range). The procedure: as §3
The mark [5] stands for this setting: Homo sapiens, HCT-116, read-out: HCT116 IDH1 R132C IC50 (Range).
Where [6] appears, read: Homo sapiens, HCT-116, read-out: HCT116 IDH1 R132H IC50 (Range).

SMILES strings stand for the structures. Like-named read-outs stand apart in the source and are kept apart here.

For orientation: IC50 means the concentration needed to halve the response being measured.

Sequence of IDH1-R132C recombinant protein (O75874 whole entry R132C): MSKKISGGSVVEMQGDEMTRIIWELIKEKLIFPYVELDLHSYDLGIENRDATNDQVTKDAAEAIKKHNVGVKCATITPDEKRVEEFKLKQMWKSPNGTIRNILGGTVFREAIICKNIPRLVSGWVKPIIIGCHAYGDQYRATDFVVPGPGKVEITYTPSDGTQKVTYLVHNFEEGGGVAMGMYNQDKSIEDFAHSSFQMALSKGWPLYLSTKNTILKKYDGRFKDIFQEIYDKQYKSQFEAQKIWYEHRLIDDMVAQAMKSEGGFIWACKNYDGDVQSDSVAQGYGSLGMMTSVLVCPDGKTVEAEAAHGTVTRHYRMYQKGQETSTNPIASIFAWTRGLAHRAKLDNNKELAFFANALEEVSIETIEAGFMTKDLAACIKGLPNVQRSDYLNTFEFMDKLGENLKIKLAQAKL
Sequence of IDH1-R132H recombinant protein (O75874 whole entry R132H): as the sequence (O75874 whole entry R132C) above, with C132H counted along it

In the case of `CC(C)Cn1nccc1-c1ccnc(N[C@@H](C)c2cc3cc(Cl)ccc3[nH]c2=O)n1` [I-85], the 50% inhibitory concentration (IC50) in experiment [1] (setting [5]), in experiment [2], in experiment [3] (setting [6]) and in experiment [4] was 100 to 1000 nM throughout.
For `COC(=O)C(c1ccnc(N[C@@H](C)c2cc3cc(Cl)ccc3[nH]c2=O)n1)S(C)(=O)=O` (stereo partly shown) [I-134], the IC50 in experiment [2] was > 10000 nM.
For `COc1nc(N[C@H](C)c2nc3cc(Cl)ccc3[nH]c2=O)ncc1C#N` [I-157], the IC50 was 100 to 1000 nM in experiment [1] (read-out: HCT116 IDH1 R132C IC50 (Range)), 1000 to 10000 nM in experiment [2], < 100 nM in experiment [3] (read-out: HCT116 IDH1 R132H IC50 (Range)) and 100 to 1000 nM in experiment [4].
`Cc1[nH]ncc1-c1ccnc(N[C@@H](C)c2cc3cc(Cl)ccc3[nH]c2=O)n1` [I-83]: the 50% inhibitory concentration (IC50) was in the range of 100 to 1000 nM in experiment [1] (setting [5]), 1000 to 10000 nM in experiment [2], 1000 to 10000 nM in experiment [3] (setting [6]) and 100 to 1000 nM in experiment [4].
